Assay results from patent US12422427B2, “Compounds for treatment of diseases and methods of screening therefor” (Max-Planck-Gesellschaft zur Förderung der Wissenschaften …, priority 2018, dated 2025).

How the values were obtained:
[1] = test system: RHO-1; experiment: Protein aggregation in C. elegans: RHO-1; assay type: in vivo, Caenorhabditis elegans; settings: 1.5 mM
Experimental: (§1) The effect of lipoic acid on stress granule protein aggregation in vivo was analysed using a C. elegans model for stress granule formation and aggregation. As previously described, fluorescent-tagged PAB-1 forms abundant stress granules and large solid aggregates during aging or upon chronic stress. RHO-1 and KIN-19 also aggregate during aging, but are not RNA binding or stress granule proteins. Three lines were used: Fluorescently tagged PAB-1 (DCD214: N2; uqIs24[pmyo-2::tagrfp::pab 1gene]), KIN-19 (CF3649: N2; muIs 209[pmyo-3::kin-19::tagrfp+ptph-1::GFP] and RHO-1 (DCD13: N2; uqIs9 [pmyo-2::rho-1::tagr fp+ptph-1::gfp]). Each were analysed as below, except DCD13 were maintained at 20° C.
(§2) The animals were exposed to lipoic acid in liquid culture in a 96 well plate starting from larval stage L4 in a total volume of 50 μl S-Complete per well (100 mM NaCl, 50 mM Potassium phosphate pH 6, 10 mM potassium citrate, 3 mM MgSO4, 3 mM CaCl2), 5 μg/mL cholesterol, 50 μM ethylenediaminetetraacetic acid (EDTA), 25 μM FeSO4, 10 μM MnCl2, 10 μM ZnSO4, 1 μM CuSO4) supplemented with heat-killed OP50 and 50 μg/ml carbenicillin. […] Toxicity was evaluated from the number of dead or aberrantly small-sized animals.
(§3) 48 h after switching the L4s from 20° C. to 25° C. […] After immobilization with 2 mM levamisole aggregation was scored using a fluorescent stereo microscope (Leica M165 FC, Plan Apo 2.0× objective). […]

[2] = test system: KIN-19; assay type: in vivo, Caenorhabditis elegans; settings: 1.5 mM
Experimental: as §1, §2, §3

[3] = target: T1, FUS eGFP condensate (Homo sapiens, UniProt P35637); experiment: Optical tweezers fusion assay of FUS condensate liquidity; assay type: biochemical
T1 sequence (P35637 1-526): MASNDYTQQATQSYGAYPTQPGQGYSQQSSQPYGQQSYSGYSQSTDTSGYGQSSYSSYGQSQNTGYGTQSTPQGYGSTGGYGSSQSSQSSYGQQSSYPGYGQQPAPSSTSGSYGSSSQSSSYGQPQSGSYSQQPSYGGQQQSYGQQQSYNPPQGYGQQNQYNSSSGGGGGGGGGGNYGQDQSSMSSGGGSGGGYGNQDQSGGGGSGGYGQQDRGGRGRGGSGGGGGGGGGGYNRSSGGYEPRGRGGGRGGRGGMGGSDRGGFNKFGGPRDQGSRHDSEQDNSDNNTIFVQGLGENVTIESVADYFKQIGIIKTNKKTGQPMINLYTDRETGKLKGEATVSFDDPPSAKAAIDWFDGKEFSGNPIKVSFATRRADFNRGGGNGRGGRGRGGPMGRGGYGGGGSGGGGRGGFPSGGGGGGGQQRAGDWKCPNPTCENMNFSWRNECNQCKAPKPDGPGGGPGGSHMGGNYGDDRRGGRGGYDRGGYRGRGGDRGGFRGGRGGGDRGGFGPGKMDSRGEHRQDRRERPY
Experimental: FIG. 5A) Schematic illustrating the quantitation of condensate droplet liquidity using optical tweezers. Two droplets are brought into contact and begin to fuse the time taken to relax to a single spherical droplet (once adjusted for droplet size) is a measure of the viscosity to surface tension ratio of the droplet—a measure of liquidity. Representative of two independent replicates. FIG. 5B) Droplet size-corrected relaxation times for droplet fusions with either 300 μM lipoamide or equivalent DMSO solvent control (0.3%). Box represents the 25th, 50th and 75th percentiles, whiskers represent 5th and 95th percentiles. […] FIGS. 5C-5E) Effect of 10 μM lipoamide on G156E FUS GFP condensates (formed under dextran crowding) on ‘aging’ while shaking, relative to an equivalent DMSO solvent control (0.1%). These conditions match those previously published^7. FIG. 5C) Representative images after 30 h aging, showing fibre formation in the DMSO sample. FIG. 5D) Representative fluorescence recovery after photobleaching (FRAP) time series of FUS condensates and fibres during aging. FIG. 5E) Quantitation of FRAP in FIG. 5C). Error bars represent standard deviation. […] Both compounds delay fibre formation.
Lipoamide effect on FUS eGFP condensate liquidity (surface tension and viscosity) was determined. Here, condensate droplets were brought together by optical tweezers and the rate of fusion and relaxation to a sphere was measured (FIG. 5A).

[4] = Stability of lipoamide in growth medium by NMR signal of the trans-amide proton; assay type: physicochemical
Experimental: Integrated NMR signal intensity is proportional to concentration, provided conditions (including ionic strength, buffer composition, temperature and pH) are identical^73. Chemical exchange^74, expected as the amide protons in lipoamide should be labile in water, must also be accounted for. To ensure appropriate conditions were selected, (^15N) ^1H NMR spectra were obtained in different solvents (Chloroform-d, H2O, culture medium, medium with 3 mM KAsO2 and a 50:50 mixture of medium with 3 mM KAsO2 and EDTA-trypsin) (FIGS. 13B-13C). […] To determine temperature and pH sensitivity of the trans-amide proton signal (^15N) ^1H spectra of 1 mM lipoamide in medium were acquired at different temperatures (FIG. 13D) and pH (FIG. 13E). […] To determine whether lipoamide degrades over time the signal from the trans-amide proton was monitored at 37° C. and 10° C. for 10 h. […] At 10° C. and below pH 8.6 the integrated signal from the trans-amide proton resonance is therefore a good measure of ^15N lipoamide concentration.

[5] = Attainable concentration / precipitation of lipoamide in aqueous media; assay type: physicochemical

Row | droplet size-corrected relaxation (fusion) time ([3]; 300 μM lipoamide vs 0.3% DMSO) | concentration required for an effect on condensate liquidity in vitro ([3]; with 1 μM FUS) [µM] | time over which signal intensity is stable ([4]; growth medium, 10° C.) [h] | trans-amide proton signal intensity over time ([4]; medium, 37° C., 10 h) | behaviour in worm culture medium [5] | concentration able to be reached in vitro ([5]; H2O with 1% v/v DMSO) [µM] | Structure (SMILES) | RHO-1 aggregation [1] | KIN-19 aggregation [2] | FUS eGFP condensate liquidity ([3]; rate of fusion and relaxation to a sphere)
1 | – | – | – | – | – | – | O=C(O)CCCCC1CCSS1 (racemic) [lipoic acid, 5-(1,2-dithiolan-3-yl)pentanoic acid] | No effect | mild decrease | –
2 | reduces fusion time | ~100 | > 10 | decayed slowly | precipitation in the worm culture medium | 300 | NC(=O)CCCCC1CCSS1 (racemic) [lipoamide, 5-(1,2-dithiolan-3-yl)pentanamide] | – | – | increased the liquidity by a factor of three
